{
  "source": "paper PMC11054303",
  "about": "“Design and Synthesis of Novel N-Benzylidene Derivatives of 3-Amino-4-imino-3,5-dihydro-4H-chromeno[2,3-d]pyrimidine under Microwave, In Silico ADME Predictions, In Vitro Antitumoral Activities and In Vivo Toxicity” (Pharmaceuticals, 2024)",
  "key": {"[1]": {"test_system": "Fibroblasts", "assay": "Antiproliferative assay, diploid skin fibroblasts (normal cells)", "assay_type": "cell-based", "details": "Fibroblast; 48 h incubation; average of three assays, standard error ± 0.5 μM", "procedure": "The potential antiproliferative activity of these novel 3-(N-phenylmethyliden)amino-4-imino-3,5-dihydro-4H-chromeno[2,3-d]pyrimidine 10(a-i) and 10-(N-phenylmethyliden)amino-11-imino-11H-naphto[1′,2′:5,6]pyrano[2,3-d]pyrimidine 10(j-l) was evaluated in a panel of eight tumoral cell lines and in diploid skin fibroblasts used as normal cell lines for control. For these antitumor assays, chosen cell lines represent diverse types of human cancer, which are, respectively, human hepatocellular carcinoma (Huh7 D12), human colon adenocarcinoma (Caco2), human breast adenocarcinoma (MDA-MB231), MDA-MB468 for human breast carcinoma which correspond to the Triple Negative Breast Cancer (TNBC), human colon carcinoma (HCT116), PC3 as cell line initiated from bone metastasis of grade IV prostatic adenocarcinoma from a person, MCF7 as breast cancer line isolated from a person and PANC1, as human pancreatic cancer cell line. The potential antiproliferative activity was preliminarily evaluated in vitro at a 25 μM single dose.\nThe IC50 was calculated from the full dose-response curve and used as a parameter for the antiproliferative activity of the new compounds.\nSkin diploid fibroblastic cells were provided by BIOPREDIC International Company (Rennes, France). Huh-7D12 (Ref ECACC: 01042712), Caco2 (Ref ECACC: 86010202), MDA-MB-231 (Ref ECACC: 92020424), MDA-MB-468, HCT-116 (Ref ECACC: 91091005), PC3 (Ref ECACC: 90112714), and MCF7 cell lines were obtained from the ECACC collection. PANC1 cell lines, a generous gift of LBAI Inserm 1227 (Brest, France). Cells were grown according to ECACC recommendations in DMEM for Huh-D12, MDA-MB-231, MDA-MB-468 and fibroblast, in EMEM for Caco2, in McCoy’s for HCT-116 and RPMI for PC3 at 37 °C and 5% CO2. All culture media with 10% of FBS, 1% of penicillin-streptomycin and 2 mM glutamine.\nChemicals were solubilized in DMSO at a concentration of 10 mM (stock solution) and diluted in a culture medium to the desired final concentrations. […] The toxicity test of the chemicals on these cells was as follows: 2 × 10^3 cells for HCT-116 cells or 4 × 10^3 for the other cells were seeded in 96-multi-well plates in triplicate and left for 24 h for attachment, spreading and growing. Then, cells were exposed for 48 h to increasing concentrations of chemicals, ranging from 0.1 μM to 25 μM, in a final volume of 120 μL of culture medium. After 48 h of treatment, cells were washed in PBS and fixed in a cooled 90% ethanol/5% acetic acid solution for 20 min. The nuclei were stained with Hoechst 3342 (B2261 Merck Sigma-Aldrich) and counted. Image acquisition and analysis were performed using automated imaging analysis with a Cellomics Arrayscan VTI/HCS Reader (Thermo/Scientific, Waltham, MA, USA). The survival percentages were calculated as the percentage of cell number after chemical treatment over cell number after DMSO treatment. The IC50 was graphically determined."}, "[2]": {"test_system": "Store-Operated Ca^+2 Entry (SOCE)", "assay": "Store-operated calcium entry (SOCE) assay in HEK293 cells", "assay_type": "cell-based, human", "details": "1.25 to 50 μM added 5 min before recording, 2 μM thapsigargin, then 1.8 mM Ca2+", "procedure": "(§1) Thapsigargin (TG), an inhibitor of endoplasmic reticulum Ca^+2-ATPase, is used to deplete intracellular calcium stores in a Ca^+2-free solution and therefore activate SOCE. […] In the context of a preliminary exploration of the functional effects of our molecules of interest and in the absence of a significant inhibition at a low concentration of compound 10h on the reference cell line we used (HEK293) no further exploration of the modulatory effect of this compound on cancer cell lines was initiated.\nThe HEK293 cell line was maintained in DMEM High Glucose with Sodium Pyruvate ([…]) and antibiotics (1% of penicillin/streptomycin) in a humidified incubator at 37 °C, supplemented with 5% of CO2.\nFor Ca^2+ measurement experiments, HEK293 cells were seeded overnight into 96 wells of a black clear bottom plate (Corning Ref: 3603) at […] in 100 µL culture medium. The resting medium was aspirated and cells were loaded with Fura-2 acetoxymethyl ester (Fura-2 QBT™) fluorochrome. […]\nIntracellular calcium levels were evaluated by recording changes in the fluorescence of the dual-wavelength fluorescent calcium-sensitive dye Fura-2AM using the plate reader FlexStation 3™ (Molecular Devices, Sunnyvale, CA, USA). Dual excitation wavelength capability permits ratiometric measurements of Fura-2AM peak fluorescence emission at 510 nm after excitations at 340 and 380. […]"}, "[3]": {"test_system": "Store-Operated Ca^+2 Entry (SOCE)", "assay": "SOCE and Ca2+ release assay in B cell line (PLP cell line)", "assay_type": "cell-based", "details": "same protocol", "procedure": "as §1"}},
  "note": "“Also recorded” adds a separate entry of the source.",
  "data": [
    {"compound": "COc1cccc2c1Oc1ncn(/N=C/c3ccccc3O)c(=N)c1C2", "note": "[10h, (3E) 3-N-(2-Hydroxyphenylmethylidene)amino-4-imino-9-methoxy-3,5-dihydro-4H-chromeno[2,3-d]pyrimidine]", "values": [
      {"measurement": "IC50", "setting": "[1]", "result": "> 25", "unit": "µM"},
      {"measurement": "inhibition of SOCE", "setting": "[2]", "result": "dose-dependent inhibition; also recorded: partially inhibits SOCE in HEK293 cells in a dose-dependent manner; also recorded: dose-dependent effect but with a minor inhibitory effect on SOCE at low concentrations"},
      {"measurement": "inhibitory effects on SOCE and Ca2+ release", "setting": "[3]", "result": "without detecting any inhibitory effects on SOCE and Ca^2+ release; also recorded: no inhibitory effects on SOCE and Ca^+2 release"}
    ]}
  ]
}
